According to patent publication US20140057842A1, “COMPOSITIONS AND METHODS FOR CELL HOMING AND ADIPOGENESIS” (The Trustees of Columbia University in the City of New York, priority 2010, published 2014):

Legend:
hADSCs [1] = assay: PPARγ expression of hADSCs followed for 28 days; format: cell-based, human; details: ADM plus 2 μM Pyrintegrin, compared with ADM alone
Procedure: (§1) Change in PPARγ expression of hADSCs were followed for 28 days. hADSCs were treated with: control medium; adipogenic differentiation medium (ADM); ADM plus 10 μM of Notch gamma Secretase Inhibitor (Inh1) (ADM+Inh1); ADM plus 10 μM of MAPK Inhibitor (Inh2) (ADM+Inh2); and ADM plus 10 μM of Inh1 and Inh2 (ADM+Inh1, 2).
PPARγ expression was measured for 28 days in hADSCs treated with: control medium; adipogenic differentiation medium (ADM); and ADM plus 2 μM of Pyrintegrin (ADM+Pyrintegrin).

hADSCs [2] = assay: C/EBPα expression of hADSCs followed for 28 days; format: cell-based, human; details: ADM plus 2 μM Pyrintegrin, compared with ADM alone
Procedure: as §1, with “C/EBPα” for “PPARγ”
C/EBPα expression was measured for 28 days in hADSCs treated with: control medium; adipogenic differentiation medium (ADM); and ADM plus 2 μM of Pyrintegrin (ADM+Pyrintegrin).

hADSCs [3] = assay: Lipid staining / brightfield images of hADSCs four weeks post-treatment; format: cell-based, human; details: ADM plus Pyrintegrin, compared with ADM alone
Procedure: Brightfield images were produced four weeks post-treatment of hADSCs with: (A) ADM; (B) ADM+Inh1; (C) ADM+Inh2; and (D) ADM+Inh1, 2 (see e.g., FIG. 6 A-D).
Lipid staining was performed four weeks post-treatment of hADSCs with: (A) ADM; and (B) ADM plus Pyrintegrin (ADM+Pyrintegrin).

hADSCs [4] = assay: Adiponectin content of hADSCs at two and four weeks post-treatment; format: cell-based, human; details: ADM plus 2 μM Pyrintegrin
Procedure: (§2) At two and four weeks post-treatment, Adiponectin content was measure in hADSCs treated with: control medium; adipogenic differentiation medium (ADM); ADM plus 10 μM of Notch gamma Secretase Inhibitor (Inh1) (ADM+Inh1); ADM plus 10 μM of MAPK Inhibitor (Inh2) (ADM+Inh2), and ADM plus 10 μM of Inh1 and Inh2 (ADM+Inh1, 2).
At two and four weeks post-treatment, Adiponectin content was measured in hADSCs treated with: control medium; adipogenic differentiation medium (ADM); and ADM plus 2 μM of Pyrintegrin (ADM+Drug).

hADSCs [5] = assay: Leptin content of hADSCs at two and four weeks post-treatment; format: cell-based, human; details: ADM plus 2 μM Pyrintegrin
Procedure: as §2, with “Leptin” for “Adiponectin”, “measured” for “measure”, “(ADM+Inh2);” for “(ADM+Inh2),”
At two and four weeks post-treatment, Leptin content was measured in hADSCs treated with: control medium; adipogenic differentiation medium (ADM); and ADM plus 2 μM of Pyrintegrin (ADM+Drug).

hADSCs [6] = assay: Glycerol content of hADSCs at two and four weeks post-treatment; format: cell-based, human; details: ADM plus 2 μM Pyrintegrin
Procedure: At two and four weeks post-treatment, Glycerol content was measured in hADSCs treated with: control medium; adipogenic differentiation medium (ADM); and ADM plus 2 μM of Pyrintegrin (ADM+Drug).

BMP pathway = assay: Western blot analysis of hADSCs 1-hour post-treatment, phosphorylation of Smad1/5/8; format: cell-based, human; details: 2 μM with ADM or alone
Procedure: (§3) Western blot analysis was performed 1-hour post-treatment in hADSCs treated with: control medium (Control); adipogenic differentiation medium (ADM); ADM plus 2 μM of Pyrintegrin (ADM+Drug); and Pyrintegrin alone (Drug).

TGFβ/Activin pathway = assay: Western blot analysis of hADSCs 1-hour post-treatment, TGFβ/Activin pathway; format: cell-based, human; details: 2 μM with ADM or alone
Procedure: as §3

hADSCs [7] = assay: PPARγ and C/EBPα gene expression of hADSCs four days post-treatment with Pyrintegrin without ADM; format: cell-based, human; details: control medium plus 2 μM or 10 μM Pyrintegrin
Procedure: PPARγ and C/EBPα gene expression was measured at four days post-treatment in hADSCs treated with: control medium (Control); control medium plus 2 μM of Pyrintegrin (Control+Drug 2 μM); control medium plus 10 μM of Pyrintegrin (Control+Drug 10 μM) and adipogenic medium (ADM).

[8] = tested on: adipocyte stem cells (ASCs); assay: Adipogenesis of adipocyte stem cells treated with EGFR antagonist (marker expression, glycerol and leptin contents); format: cell-based; details: 50 ng/mL in adipogenic medium
Excerpt: Together, the adipogenic differentiation capacity of ASCs was restored to a similar level to without HSC co-culture.

For `O=S(=O)(NCC1CC1)c1ccc(Nc2nccc(N3CCCc4cc(O)ccc43)n2)cc1` [Pyrintegrin, N-(Cyclopropylmethyl)-4-(4-(6-hydroxy-3,4-dihydroquinolin-1-(2H)-yl)pyrimidin-2-ylamino)benzenesulfonamide], the “PPARγ expression in hADSCs” value (hADSCs [1]) was “more potent in inducing PPARγ expression”, the “C/EBPα expression in hADSCs” value (hADSCs [2]) was “more potent in inducing C/EBPα expression” and the “lipid accumulation in hADSCs” value (hADSCs [3]) was “more potent in inducing lipid accumulation”. The “secretion of Adiponectin cytokine by hADSCs” value (hADSCs [4]) was “enhanced the secretion of Adiponectin cytokine”, the “secretion of Leptin cytokine by hADSCs” value (hADSCs [5]) was “enhanced the secretion of Leptin cytokine” and the “secretion of Glycerol by hADSCs” value (hADSCs [6]) was “enhanced the secretion of Glycerol”. For the same compound, the “phosphorylation of Smad1/5/8 (BMP pathway)” value (BMP pathway) was “prevents the phosphorylation of Smad1/5/8”, the TGFβ/Activin pathway inhibition (TGFβ/Activin pathway) was “does not target the TGFβ/Activin pathway” and the “adipogenic differentiation of hADSCs (PPARγ and C/EBPα gene expression)” value (hADSCs [7]) was “can induce hADSCs towards an adipogenic differentiation pathway”.
In the case of “EGF: EGF added at 50 ng/mL to the adipogenic medium (NSDSECPLSHDGYCLHDGVCMYIEALDKYACNCVVGYIGERCQYRDLKWWELR; UniProt P01133 971-1023, looked up)”, the “adipogenesis of ASCs on addition of EGF to the adipogenic medium” value [8] is reported as “further inhibited adipogenesis”.
